Where two headings read alike, the source gives them in different places.
Target: PHGDH (Homo sapiens (Human), UniProt O43175)
Assay: 3-Phosphoglycerate Dehydrogenase (PHGDH) Fluorescence Intensity Assay, run at two NAD/3-PG ratios: PHGDH_HIGH_NAD/3-PG (250 μM NAD/500 μM 3-PG) and PHGDH_500_NAD/3-PG (500 μM NAD/500 μM 3-PG)
Assay type: biochemical
[1] = 250 μM NAD/500 μM 3-PG, read-out: IC50 (PHGDH_HIGH_NAD/3-PG)
[2] = 500 μM NAD/500 μM 3-PG, read-out: IC50 (PHGDH_500_NAD/3-PG)

Sequence of PHGDH (O43175 2-533 limits assumed): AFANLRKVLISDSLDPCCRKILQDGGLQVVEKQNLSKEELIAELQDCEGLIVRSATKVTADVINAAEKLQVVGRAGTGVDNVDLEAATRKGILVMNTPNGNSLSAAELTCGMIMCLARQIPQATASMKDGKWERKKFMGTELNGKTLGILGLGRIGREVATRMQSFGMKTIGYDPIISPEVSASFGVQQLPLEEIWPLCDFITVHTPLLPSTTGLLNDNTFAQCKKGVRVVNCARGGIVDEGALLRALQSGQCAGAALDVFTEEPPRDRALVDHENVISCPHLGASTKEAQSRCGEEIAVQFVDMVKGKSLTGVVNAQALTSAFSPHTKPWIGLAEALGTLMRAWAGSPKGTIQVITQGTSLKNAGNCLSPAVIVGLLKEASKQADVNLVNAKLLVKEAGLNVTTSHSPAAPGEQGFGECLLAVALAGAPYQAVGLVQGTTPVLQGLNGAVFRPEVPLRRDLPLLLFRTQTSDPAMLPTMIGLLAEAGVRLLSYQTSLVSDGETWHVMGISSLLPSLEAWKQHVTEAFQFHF
Source text: This assay is used to identify compounds which inhibit the enzymatic activity of PHGDH which catalyzes the reaction of 3-Phosphoglycerate (3-PG) and NAD to 3-Phosphohydroxypyruvate and NADH.
The produced NADH is used in a coupled reaction for Diaphorase mediated reduction of Resazurin to Resorufin which can be measured in a Fluorescence Intensity readout.
The full length version of PHGDH enzyme was expressed in E. coli with an N-terminal HIS-tag and a TEV cleavage site.
The 3-Phosphoglycerate substrate was purchased from Sigma. NAD, Diaphorase and Resazurin were purchased from Sigma Aldrich.
Compounds are dispensed onto assay plates (black, low volume, flat bottom 384 well, Corning) using an Access Labcyte Workstation with the Labcyte Echo 55× from a DMSO solution. For the chosen highest assay concentration of 100 μM, 150 nl of compound solution are transferred from a 10 mM DMSO compound stock solution. A series of 11 concentrations (10 1:5 steps) is transferred for each compound.
The assay has been performed at two different NAD/3-PG ratios (final assay concentrations):
Plates are kept at room temperature. After 240 minutes incubation time the fluorescence signal is measured in a PerkinElmer Envision HTS Multilabel Reader with an excitation wavelength at 530-560 nm and an emission wavelength at 590 nm.
Each plate contains negative controls (diluted DMSO instead of test compound; reaction as described with PHGDH protein) and positive controls (diluted DMSO instead of test compound; reaction as described with buffer instead of PHGDH protein). Negative and positive control values are used for normalization.
IC50 values are calculated and analyzed in the MEGALAB IC50 application using a 4 parametric logistic model.

| SMILES | IC50 [1] [nM] | IC50 [2] [nM] |
| --- | --- | --- |
| Cc1cc(Cl)c2cc(C(=O)N[C@H](C)c3ccc(S(=O)(=O)CC(=O)OCc4ccncc4)cc3)n(C)c2c1 [Example 09-010, pyridin-4-ylmethyl 2-{4-[(1R)-1-[(4-chloro-1,6-dimethyl-1H-indol-2-yl)formamido]ethyl]benzenesulfonyl}acetate] | 175 | – |
| Cc1cc(Cl)c2cc(C(=O)N[C@H](C)c3ccc(S(=O)(=O)CC(=O)OCC(COC(=O)C(C)(C)C)COC(=O)C(C)(C)C)cc3)n(C)c2c1 [Example 09-015, 2-{[(2-{4-[(1R)-1-[(4-chloro-1,6-dimethyl-1H-indol-2-yl)formamido]ethyl]benzenesulfonyl}acetyl)oxy]methyl}-3-[(2,2-dimethylpropanoyl)oxy]propyl 2,2-dimethylpropanoate] | 9190 | – |
| Cc1cc(Cl)c2cc(C(=O)N[C@H](C)c3ccc(S(=O)(=O)CC(=O)OCC4CC4)cc3)n(C)c2c1 [Example 09-016, cyclopropylmethyl 2-{4-[(1R)-1-[(4-chloro-1,6-dimethyl-1H-indol-2-yl)formamido]ethyl]benzenesulfonyl}acetate] | 2100 | – |
| Cc1cc(Cl)c2cc(C(=O)N[C@H](C)c3ccc(S(=O)(=O)CC(=O)OCC4COC4)cc3)n(C)c2c1 [Example 09-017, oxetan-3-ylmethyl 2-{4-[(1R)-1-[(4-chloro-1,6-dimethyl-1H-indol-2-yl)formamido]ethyl]benzenesulfonyl}acetate] | 177 | – |
| Cc1cc(Cl)c2cc(C(=O)N[C@H](C)c3ccc(S(=O)(=O)CC(=O)O[C@H]4CCOC4)cc3)n(C)c2c1 [Example 09-018, (3S)-oxolan-3-yl 2-{4-[(1R)-1-[(4-chloro-1,6-dimethyl-1H-indol-2-yl)formamido]ethyl]benzenesulfonyl}acetate] | 418 | – |
| Cc1cc(Cl)c2cc(C(=O)N[C@H](C)c3ccc(S(=O)(=O)CC(=O)O[C@@H]4CCOC4)cc3)n(C)c2c1 [Example 09-019, (3R)-oxolan-3-yl 2-{4-[(1R)-1-[(4-chloro-1,6-dimethyl-1H-indol-2-yl)formamido]ethyl]benzenesulfonyl}acetate] | 250 | – |
| COC(C)(C)COC(=O)CS(=O)(=O)c1ccc([C@@H](C)NC(=O)c2cc3c(Cl)cc(C)cc3n2C)cc1 [Example 09-021, 2-methoxy-2-methylpropyl 2-{4-[(1R)-1-[(4-chloro-1,6-dimethyl-1H-indol-2-yl)formamido]ethyl]benzenesulfonyl}acetate] | 574 | – |
| CC(=O)OCC(COC(C)=O)COC(=O)CS(=O)(=O)c1ccc([C@@H](C)NC(=O)c2cc3c(Cl)cc(C)cc3n2C)cc1 [Example 09-022, 3-(acetyloxy)-2-[(acetyloxy)methyl]propyl 2-{4-[(1R)-1-[(4-chloro-1,6-dimethyl-1H-indol-2-yl)formamido]ethyl]benzenesulfonyl}acetate] | 431 | – |
| Cc1cc(Cl)c2cc(C(=O)N[C@H](C)c3ccc(S(=O)(=O)CC(=O)OCCOC(=O)C(C)(C)C)cc3)n(C)c2c1 [Example 09-023, 2-[(2-{4-[(1R)-1-[(4-chloro-1,6-dimethyl-1H-indol-2-yl)formamido]ethyl]benzenesulfonyl}acetyl)oxy]ethyl 2,2-dimethylpropanoate] | 1800 | – |
| CC(=O)OCC(CO)COC(=O)CS(=O)(=O)c1ccc([C@@H](C)NC(=O)c2cc3c(Cl)cc(C)cc3n2C)cc1 (stereo partly drawn) [Example 09-024, 2-[(acetyloxy)methyl]-3-hydroxypropyl 2-{4-[(1R)-1-[(4-chloro-1,6-dimethyl-1H-indol-2-yl)formamido]ethyl]benzenesulfonyl}acetate] | 247 | – |
| Cc1cc(Cl)c2cc(C(=O)N[C@H](C)c3ccc(S(=O)(=O)CC(=O)OC4COC4)cc3)n(C)c2c1 [Example 09-025, oxetan-3-yl 2-{4-[(1R)-1-[(4-chloro-1,6-dimethyl-1H-indol-2-yl)formamido]ethyl]benzenesulfonyl}acetate] | 72 | – |
| Cc1cc(Cl)c2cc(C(=O)N[C@H](C)c3ccc(S(=O)(=O)CC(=O)OCC(CO)COC(=O)C(C)(C)C)cc3)n(C)c2c1 (stereo partly drawn) [Example 09-026, 2-{[(2-{4-[(1R)-1-[(4-chloro-1,6-dimethyl-1H-indol-2-yl)formamido]ethyl]benzenesulfonyl}acetyl)oxy]methyl}-3-hydroxypropyl 2,2-dimethylpropanoate] | 1410 | – |
| Cc1cc(Cl)c2cc(C(=O)N[C@H](C)c3ccc(S(=O)(=O)CC(=O)OCC(CO)CO)cc3)n(C)c2c1 [Example 09-027, 3-hydroxy-2-(hydroxymethyl)propyl 2-{4-[(1R)-1-[(4-chloro-1,6-dimethyl-1H-indol-2-yl)formamido]ethyl]benzenesulfonyl}acetate] | 160 | – |
| Cc1cc(Cl)c2cc(C(=O)N[C@H](CO)c3ccc(S(=O)(=O)CC(=O)OC4CCOCC4)cc3)n(C)c2c1 [Example 09-028, oxan-4-yl 2-{4-[(1S)-1-[(4-chloro-1,6-dimethyl-1H-indol-2-yl)formamido]-2-hydroxyethyl]benzenesulfonyl}acetate] | 230 | – |
| Cc1cc(Cl)c2cc(C(=O)N[C@H](CO)c3ccc(S(=O)(=O)CC(=O)O[C@H]4CCOC4)cc3)n(C)c2c1 [Example 09-030, (3S)-oxolan-3-yl 2-{4-[(1S)-1-[(4-chloro-1,6-dimethyl-1H-indol-2-yl)formamido]-2-hydroxyethyl]benzenesulfonyl}acetate] | 85 | – |
| Cc1cc(Cl)c2cc(C(=O)N[C@H](CO)c3ccc(S(=O)(=O)CC(=O)OCC4(C)COC4)cc3)n(C)c2c1 [Example 09-031, (3-methyloxetan-3-yl)methyl 2-{4-[(1S)-1-[(4-chloro-1,6-dimethyl-1H-indol-2-yl)formamido]-2-hydroxyethyl]benzenesulfonyl}acetate] | 61 | – |
| Cc1cc(Cl)c2cc(C(=O)N[C@H](CO)c3ccc(S(=O)(=O)CC(=O)OCCCO)cc3)n(C)c2c1 [Example 09-033, 3-hydroxypropyl 2-{4-[(1S)-1-[(4-chloro-1,6-dimethyl-1H-indol-2-yl)formamido]-2-hydroxyethyl]benzenesulfonyl}acetate] | 98 | – |
| Cc1cc(Cl)c2cc(C(=O)N[C@H](CO)c3ccc(S(=O)(=O)CC(=O)OCCO)cc3)n(C)c2c1 [Example 09-034, 2-hydroxyethyl 2-{4-[(1S)-1-[(4-chloro-1,6-dimethyl-1H-indol-2-yl)formamido]-2-hydroxyethyl]benzenesulfonyl}acetate] | 52 | – |
| Cc1cc(Cl)c2cc(C(=O)N[C@H](CO)c3ccc(S(=O)(=O)CC(=O)OCC4COC4)cc3)n(C)c2c1 [Example 09-035, oxetan-3-ylmethyl 2-{4-[(1S)-1-[(4-chloro-1,6-dimethyl-1H-indol-2-yl)formamido]-2-hydroxyethyl]benzenesulfonyl}acetate] | 54 | – |
| Cc1cc2c(cc(C(=O)N[C@H](CO)c3ccc(S(=O)(=O)CC(=O)OCCO)cc3)n2C)c(Cl)c1Cl [Example 09-036, 2-hydroxyethyl 2-{4-[(1S)-1-[(4,5-dichloro-1,6-dimethyl-1H-indol-2-yl)formamido]-2-hydroxyethyl]benzenesulfonyl}acetate] | – | 107 |
| Cc1cc2c(cc(C(=O)N[C@H](CO)c3ccc(S(=O)(=O)CC(=O)OC4CCOCC4)cc3)n2C)c(F)c1F [Example 09-037, oxan-4-yl 2-{4-[(1S)-1-[(4,5-difluoro-1,6-dimethyl-1H-indol-2-yl)formamido]-2-hydroxyethyl]benzenesulfonyl}acetate] | – | 578 |

— patent US11304929B2, “Tosylacetate based compounds and derivatives thereof as PHGDH inhibitors” (priority 2017, dated 2022)
